The experiment has as its system SKOV3 cells. As to the kind of experiment: IC50 concentration of standard ovarian cancer chemotherapy. Format: cell-based.

The text below walks through data of US10111935B2, “Agent for capturing tumor cells and methods of use thereof” (priority 2014, dated 2018).

Like-named read-outs stand apart in the source and are kept apart here.

With `N.N.O=C([O-])C1(C(=O)[O-])CCC1.[Pt+2]` [Carboplatin], the half-inhibitory concentration (IC50) worked out at 10 µM (Carboplatin individually, read-out: IC50) and 1 µM (Carboplatin part of the combination, read-out: IC50 in combination Paclitaxel+Carboplatin).
